Structures are written as SMILES. The source made the active and inactive calls. How the calls were made is not given here.

The subject of the data set is rodent carcinogenicity bioassays, tumor incidence. The data set can be described thus: CCRIS carcinogenicity studies. An outline of the steps:
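NCI-built, expert-reviewed records of carcinogenicity and related test outcomes (mutagenicity, tumor promotion/inhibition) compiled from published and report sources, historical span 1985-2011, not updated.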

For `O=c1cc(CO)occ1O`, the carcinogen call is, setting by setting: (Species: MOUSE, Strain/Sex: B6C3F1/FEMALE, Route: ORAL, Dose: 0, 1.5, 3% IN DIET FOR 20 MONTHS (STUDY DURATION: 20 MONTHS), Dose: 0, 1.5, 3% IN DIET FOR 20 MONTHS (STUDY DURATION: 20 MONTHS), Tumor Site: Type of Lesion: THYROID: ADENOMA. LIVER: HEPATOMA) “active; positive”; (Species: MOUSE, Strain/Sex: B6C3F1/MALE, Route: ORAL, Dose: 0, 1.5, 3% IN DIET FOR 20 MONTHS (STUDY DURATION: 20 MONTHS), Dose: 0, 1.5, 3% IN DIET FOR 20 MONTHS (STUDY DURATION: 20 MONTHS), Tumor Site: Type of Lesion: THYROID: ADENOMA) “active; positive”; (Species: Rat, Strain/Sex: F344/Male (20/experimental group (10 killed at 31 wk & 10 killed at 44 wk); 15/controls), Route: Oral, Dose: Kojic acid at 2.0% in drinking water for 31 wk, recovery for 13 wk, study duration 44 wk, Dose: Kojic acid at 2.0% in drinking water for 31 wk, recovery for 13 wk, study duration 44 wk, Tumor Site: Type of Lesion: Thyroid: 1 adenoma at 44 wk) “inactive; negative (however, significantly greater increase in thyroid follicular cell hyp”.
Consider `O[C@H]1[C@H]2O[C@H]2c2c(ccc3cc4ccc5ccccc5c4nc23)[C@@H]1O`, for which the carcinogen call reads like this: (Species: MOUSE, Strain/Sex: CD-1/FEMALE, Route: INTRAPERITONEAL, Dose: 0, 28 NMOL (TOTAL DOSE) ADMINISTERED AS 1/7 OF DOSE WITHIN 24 HR AFTER BIRTH, 2/7 OF DOSE AT 8 D OLD, 4/7 OF DOSE AT 15) “inactive; negative”; (Species: MOUSE, Strain/Sex: CD-1/FEMALE, Route: INTRAPERITONEAL, Dose: 0, 175 NMOL (TOTAL DOSE) ADMINISTERED AS 1/7 OF DOSE WITHIN 24 HR AFTER BIRTH, 2/7 OF DOSE AT 8 D OLD, 4/7 OF DOSE AT 15) “inactive; negative”; (Species: MOUSE, Strain/Sex: CD-1/MALE, Route: INTRAPERITONEAL, Dose: 0, 28 NMOL (TOTAL DOSE) ADMINISTERED AS 1/7 OF DOSE WITHIN 24 HR AFTER BIRTH, 2/7 OF DOSE AT 8 D OLD, 4/7 OF DOSE AT 15) “inactive; negative”; (Species: MOUSE, Strain/Sex: CD-1/MALE, Route: INTRAPERITONEAL, Dose: 0, 175 NMOL (TOTAL DOSE) ADMINISTERED AS 1/7 OF DOSE WITHIN 24 HR AFTER BIRTH, 2/7 OF DOSE AT 8 D OLD, 4/7 OF DOSE AT 15) “inactive; negative”.
Consider `OC(c1ccc(Cl)cc1)(c1ccc(Cl)cc1)C(Cl)(Cl)Cl`, for which the carcinogen call was “inactive; negative” (Species: MOUSE, Strain/Sex: B6C3F1/FEMALE, Route: ORAL, Dose: 0, 122, 243 PPM IN DIET, Dose: 0, 122, 243 PPM IN DIET); “active; positive” (Species: MOUSE, Strain/Sex: B6C3F1/MALE, Route: ORAL, Dose: 0, 264, 528 PPM IN DIET, Dose: 0, 264, 528 PPM IN DIET, Tumor Site: Type of Lesion: LIVER: HEPATOCELLULAR CARCINOMA OR HEPATOCELLULAR ADENOMA); “inactive; negative” (Species: RAT, Strain/Sex: OSBORNE-MENDEL/FEMALE, Route: ORAL, Dose: 0, 380, 760 PPM IN DIET, Dose: 0, 380, 760 PPM IN DIET); “inactive; negative” (Species: RAT, Strain/Sex: OSBORNE-MENDEL/MALE, Route: ORAL, Dose: 0, 471, 942 PPM IN DIET, Dose: 0, 471, 942 PPM IN DIET).
Turning to `O=[N+]([O-])c1ccc2c3c(cccc13)CC2`, the carcinogen call reads like this: (Species: MOUSE, Strain/Sex: B6C3F1/FEMALE, Route: ORAL, Dose: 0, 0.05, 0.12% TWA, IN DIET FOR 78 WK (STUDY DURATION: 96 WK), Dose: 0, 0.05, 0.12% TWA, IN DIET FOR 78 WK (STUDY DURATION: 96 WK), Tumor Site: Type of Lesion: LIVER: HEPATOCELLULAR CARCINOMA, OVARIES: GRANULOSA CELL TUMOR, LUTEOMA OR TUBULAR CELL ADENOMA) “active; positive”; (Species: MOUSE, Strain/Sex: B6C3F1/MALE, Route: ORAL, Dose: 0, 0.06, 0.12% TWA, IN DIET FOR 78 WK (STUDY DURATION: 96 WK), Dose: 0, 0.06, 0.12% TWA, IN DIET FOR 78 WK (STUDY DURATION: 96 WK)) “inactive; negative”; (Species: RAT, Strain/Sex: F344/FEMALE, Route: ORAL, Dose: 0, 0.12, 0.24% IN DIET FOR 78 WK (STUDY DURATION: 87-100 WK), Dose: 0, 0.12, 0.24% IN DIET FOR 78 WK (STUDY DURATION: 87-100 WK), Tumor Site: Type of Lesion: LUNG: ALVEOLAR/BRONCHIOLAR ADENOMA OR ALVEOLAR/BRONCHIOLAR CARCINOMA, MAMMARY GLAND: ADENOCARCINOMA OR PAPILLARY CYSTADE) “active; positive”; (Species: RAT, Strain/Sex: F344/MALE, Route: ORAL, Dose: 0, 0.12, 0.24% IN DIET FOR 70-78 WK (STUDY DURATION: 70-100 WK), Dose: 0, 0.12, 0.24% IN DIET FOR 70-78 WK (STUDY DURATION: 70-100 WK), Tumor Site: Type of Lesion: LUNG: ALVEOLAR/BRONCHIOLAR ADENOMA OR ALVEOLAR/BRONCHIOLAR CARCINOMA, EAR (EAR CANAL OR SKIN OF EAR): SQUAMOUS CELL CARC) “active; positive”.
`O=C[C@H](O)[C@@H](O)[C@H](O[C@@H]1O[C@H](CO)[C@H](O)[C@H](O)[C@H]1O)[C@H](O)CO`: the carcinogen call (Species: RAT, Strain/Sex: SPF/FEMALE, Route: ORAL, Dose: 0, 20% IN DIET FOR DURATION OF STUDY ADMINISTERED TO OFFSPRING OF RATS FED THE SAME DIETS (STUDY DURATION: 130 WK)) was “inactive; negative” and the carcinogen call (Species: RAT, Strain/Sex: SPF/MALE, Route: ORAL, Dose: 0, 20% IN DIET FOR DURATION OF STUDY ADMINISTERED TO OFFSPRING OF RATS FED THE SAME DIETS (STUDY DURATION: 130 WK), Tumor Site: Type of Lesion: ADRENAL GLAND: MEDULLARY TUMORS, TESTES: LEYDIG CELL TUMOR) was “active; positive”.
Consider `CCOC(=O)C(O)(c1ccc(Cl)cc1)c1ccc(Cl)cc1`, for which the carcinogen call is, setting by setting: (Species: MOUSE, Strain/Sex: B6C3F1/FEMALE, Route: ORAL, Dose: 0, 3200, 5908 PPM IN DIET FOR 78 WK (STUDY DURATION: 90-91 WK), Dose: 0, 3200, 5908 PPM IN DIET FOR 78 WK (STUDY DURATION: 90-91 WK), Tumor Site: Type of Lesion: LIVER: HEPATOCELLULAR CARCINOMA) “active; positive”; (Species: MOUSE, Strain/Sex: B6C3F1/MALE, Route: ORAL, Dose: 0, 4231, 7846 PPM IN DIET FOR 78 WK (STUDY DURATION: 90-91 WK), Dose: 0, 4231, 7846 PPM IN DIET FOR 78 WK (STUDY DURATION: 90-91 WK), Tumor Site: Type of Lesion: LIVER: HEPATOCELLULAR CARCINOMA) “active; positive”; (Species: RAT, Strain/Sex: OSBORNE-MENDEL/FEMALE, Route: ORAL, Dose: 0, 1175, 2229 PPM IN DIET FOR 78 WK (STUDY DURATION: 110-111 WK), Dose: 0, 1175, 2229 PPM IN DIET FOR 78 WK (STUDY DURATION: 110-111 WK), Tumor Site: Type of Lesion: ADRENAL GLAND: CORTICAL ADENOMA) “equivocal”; (Species: RAT, Strain/Sex: OSBORNE-MENDEL/MALE, Route: ORAL, Dose: 0, 1600, 2995 PPM IN DIET FOR 78 WK (STUDY DURATION: 110-111 WK), Dose: 0, 1600, 2995 PPM IN DIET FOR 78 WK (STUDY DURATION: 110-111 WK), Tumor Site: Type of Lesion: ADRENAL GLAND: CORTICAL ADENOMA) “equivocal”.

The values are drawn from PubChem BioAssay AID1259411 (Chemical Carcinogenesis Research Information System (CCRIS), 2018).
